From patent publication US11034658B2, “Pyridinyl pyrazoles as modulators of RORγT” (Janssen Pharmaceutica NV, priority 2018, dated 2021)

Columns and labels:
[1] = target: full-length human RORγt (GAL4-DBD-RORγt fusion) in HEK293T cells (Homo sapiens (Human), UniProt P51449); test: RORγt (full-length human) reporter assay, conditions A or B; assay type: cell-based; details: for IC50: HEK293T cells, read-out: RORγt (FL) Reporter Assay A or B, IC50; for inhibition at 3 µM: 3 μM compound concentration (footnote *)
Sequence of full-length human RORγt (GAL4-DBD-RORγt fusion) in HEK293T cells (P51449 other isoform, or with tags, fused parts or gaps): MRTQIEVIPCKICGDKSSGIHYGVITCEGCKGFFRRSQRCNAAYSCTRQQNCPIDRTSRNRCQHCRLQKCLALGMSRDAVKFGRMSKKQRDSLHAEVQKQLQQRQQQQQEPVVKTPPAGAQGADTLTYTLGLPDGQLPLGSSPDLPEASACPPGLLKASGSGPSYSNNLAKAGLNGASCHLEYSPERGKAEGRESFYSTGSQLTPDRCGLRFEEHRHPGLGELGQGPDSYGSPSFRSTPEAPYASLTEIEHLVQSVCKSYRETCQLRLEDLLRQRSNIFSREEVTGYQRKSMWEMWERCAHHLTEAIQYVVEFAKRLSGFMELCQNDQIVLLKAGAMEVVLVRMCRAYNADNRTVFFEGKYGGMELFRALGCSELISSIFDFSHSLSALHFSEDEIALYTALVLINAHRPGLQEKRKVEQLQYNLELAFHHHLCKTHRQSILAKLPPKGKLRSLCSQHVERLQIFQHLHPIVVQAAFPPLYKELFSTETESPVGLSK
Protocol: RORγt (Full-Length Human) Reporter Assay:
(§1) HEK293T cells were plated at 35,000 per well in 96-well plate in medium of DMEM with 10% FBS. […] After overnight (16 to 20 hours) incubation, media were removed and cells were lysed with 50 μL Glo Lysis Buffer (Promega) for 10-15 minutes followed by 10 minute incubation with 50 μL Dual Glo reagent (Promega) at room temperature. Firefly luciferase luminescence was measured using a BMG Pherastar plate reader. To each well, 50 μL Stop and Glo reagent was added and incubated for 10 minutes at room temperature. Renilla luminescence was measured using a BMG Pherastar plate reader. To calculate the effect of compounds on RORγt activity, firefly values were normalized against values of DMSO only and values of reference compound at saturating concentration, then further normalized against Renilla signals. IC50s were generated by plotting final Renilla normalized data against compound concentration and percent inhibition was calculated against DMSO control.
as §1, with “at 8750 cells” for “at 35,000”, “in 384-well” for “in 96-well”, “with 20” for “with 50”, “well, 20” for “well, 50”

[2] = target: human RORγt ligand binding domain (RORγt LBD) (Homo sapiens (Human), UniProt P51449); test: RORγt ThermoFluor assay
Sequence of human RORγt ligand binding domain (RORγt LBD) (P51449 other isoform, or with tags, fused parts or gaps): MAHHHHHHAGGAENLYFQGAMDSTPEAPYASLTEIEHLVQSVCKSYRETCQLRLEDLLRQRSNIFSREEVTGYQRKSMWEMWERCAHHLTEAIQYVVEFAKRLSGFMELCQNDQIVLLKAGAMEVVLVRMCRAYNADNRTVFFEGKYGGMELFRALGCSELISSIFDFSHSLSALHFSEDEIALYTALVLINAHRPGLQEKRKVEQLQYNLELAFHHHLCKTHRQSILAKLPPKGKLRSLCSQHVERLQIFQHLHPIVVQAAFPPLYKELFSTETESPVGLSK
Text: ThermoFluor® is a fluorescence based assay that estimates ligand binding affinities by measuring the effect of a ligand on protein thermal stability (Pantoliano, M. W., Petrella, E. C., Kwasnoski, J. D., Lobanov, V. S., Myslik, J., Graf, E., Carver, T., Asel, E., Springer, B. A., Lane, P., and Salemme, F. R. (2001) High-density miniaturized thermal shift assays as a general strategy for drug discovery. J Biomol Screen 6, 429-40, and Matulis, D., Kranz, J. K., Salemme, F. R., and Todd, M. J. (2005) Thermodynamic stability of carbonic anhydrase: measurements of binding affinity and stoichiometry using ThermoFluor. Biochemistry 44, 5258-66). This approach is applicable to a wide variety of systems, and rigorous in theoretical interpretation through quantitation of equilibrium binding constants (KD).
The shift in the melting point described as a ΔTm is proportional to the concentration and affinity of the ligand. The compound potency may be compared as a rank order of either values at a single compound concentration or in terms of KD values, estimated from concentration response curves.
RORγt ThermoFluor® Assay Construct
For the RORγt construct used in the ThermoFluor® assay, numbering for the nucleotide sequences was based on the reference sequence for human RORγt, transcript variant 2, NCBI Accession: NM 001001523.1 (SEQ ID NO:1). Nucleotides 850-1635 (SEQ ID NO:2) coding for the wild type human RORγt ligand binding domain (RORγt LBD) were cloned into the pHIS1 vector, a modified pET E. coli expression vector (Accelagen, San Diego), containing an in-frame N-terminal His-tag and a TurboTEV protease cleavage site (ENLYFQG, SEQ ID NO:3) upstream of the cloned insert sequence. The amino acid sequence for the RORγt construct used in the Thermofluor® assay is shown as SEQ ID NO:4.
ThermoFluor® experiments were carried out using instruments owned by Janssen Research and Development, L.L.C. through its acquisition of 3-Dimensional Pharmaceuticals, Inc. 1,8-ANS (Invitrogen) was used as a fluorescent dye. Protein and compound solutions are dispensed into black 384-well polypropylene PCR microplates (Abgene) and overlayed with silicone oil (1 μL, Fluka, type DC 200) to prevent evaporation.
Bar-coded assay plates are robotically loaded onto a thermostatically controlled PCR-type thermal block and then heated at a typical ramp-rate of 1° C./min for all experiments. Fluorescence was measured by continuous illumination with UV light (Hamamatsu LC6) supplied via fiber optic and filtered through a band-pass filter (380-400 nm; >6 OD cutoff). Fluorescence emission of the entire 384-well plate was detected by measuring light intensity using a CCD camera (Sensys, Roper Scientific) filtered to detect 500±25 nm, resulting in simultaneous and independent readings of all 384 wells. Images were collected at each temperature, and the sum of the pixel intensity in a given area of the assay plate was recorded versus temperature. Reference wells contained RORγt without compounds, and the assay conditions were as follows:
Project compounds were arranged in a pre-dosed mother plate (Greiner Bio-one) wherein compounds are serially diluted in 100% DMSO by 1:2 from a high concentration of 10 mM over 12 columns within a series (column 12 is a reference well containing DMSO, no compound). The compounds were robotically dispensed directly into assay plates (1×=46 nL) using a Hummingbird capillary liquid handling instrument (Digilab). Following compound dispense, protein and dye in buffer was added to achieve the final assay volume of 3 μL, followed by 1 μL of silicone oil.
The binding affinity was estimated as described previously (Matulis, D., Kranz, J. K., Salemme, F. R., and Todd, M. J. (2005) Thermodynamic stability of carbonic anhydrase: measurements of binding affinity and stoichiometry using ThermoFluor®. Biochemistry 44, 5258-66) using the following thermodynamic parameters of protein unfolding:
Reference RORγt Tm: 47.8° C.

[3] = HEK-293T, read-out: RORγt (FL) Reporter Assay A or B, % inhibition

Row | Compound | IC50 [1] [µM] | inhibition at 3 µM [1, 3] [%] | Kd [2] [µM] | inhibition at 2 µM ([1]; HEK-293T, 2 μM compound concentration, read-out: RORγt (FL) Reporter Assay A or B, % inhibition) [%]
1 | CCn1nc(C(=O)NC[C@@]2(O)CC[C@H](S(C)(=O)=O)C[C@@H]2O)c(C)c1-c1ccc(CC(C)(C)C(F)(F)F)nc1OC(F)F (relative stereo) [Example 51, 5-(2-(Difluoromethoxy)-6-(3,3,3-trifluoro-2,2-dimethylpropyl)pyridin-3-yl)-N-(((1S*,2S*,4S*)-1,2-dihydroxy-4-(methylsulfonyl)cyclohexyl)methyl)-1-ethyl-4-methyl-1H-pyrazole-3-carboxamide] | 0.035 | 97 | 0.0032 | 
2 | CCn1nc(C(=O)NC[C@H]2CC[C@H](S(C)(=O)=O)CC2)c(Cl)c1-c1cnc(C[C@H](C)C(F)(F)F)cc1OC(F)F (single isomer, unassigned) [Example 14, 4-Chloro-5-(4-(difluoromethoxy)-6-((S*)-3,3,3-trifluoro-2-methylpropyl)pyridin-3-yl)-1-ethyl-N-(((1r,4S)-4-(methylsulfonyl)cyclohexyl)methyl)-1H-pyrazole-3-carboxamide] | 0.036 | 82 | 0.0036 | 
3 | CCn1nc(C(=O)NC[C@]2(O)CC[C@@H](S(C)(=O)=O)CC2)c(Cl)c1-c1cnc(C[C@H](C)C(F)(F)F)cc1OC(F)F (single isomer, unassigned) [Example 15, 4-Chloro-5-(4-(difluoromethoxy)-6-((S*)-3,3,3-trifluoro-2-methylpropyl)pyridin-3-yl)-1-ethyl-N-(((1s,4R)-1-hydroxy-4-(methylsulfonyl)cyclohexyl)methyl)-1H-pyrazole-3-carboxamide] | 0.098 | 71 | 0.012 | 
4 | CCn1nc(C(=O)NC[C@H]2CC[C@H](S(C)(=O)=O)CC2)c(C)c1-c1cnc(C[C@H](C)C(F)(F)F)cc1OC(F)F (single isomer, unassigned) [Example 16, 5-(4-(Difluoromethoxy)-6-((S*)-3,3,3-trifluoro-2-methylpropyl)pyridin-3-yl)-1-ethyl-4-methyl-N-(((1r,4S)-4-(methylsulfonyl)cyclohexyl)methyl)-1H-pyrazole-3-carboxamide] | 0.016 | 101 | 0.0052 | 
5 | CCn1nc(C(=O)NC[C@H]2CC[C@H](S(C)(=O)=O)CC2)c(Cl)c1-c1cnc(C[C@@H](C)C(F)(F)F)cc1OC(F)F (single isomer, unassigned) [Example 17, 4-Chloro-5-(4-(difluoromethoxy)-6-((R*)-3,3,3-trifluoro-2-methylpropyl)pyridin-3-yl)-1-ethyl-N-(((1r,4R)-4-(methylsulfonyl)cyclohexyl)methyl)-1H-pyrazole-3-carboxamide] | 0.034 | 125 | 0.0041 | 
6 | CCn1nc(C(=O)NC[C@]2(O)CC[C@@H](S(C)(=O)=O)CC2)c(Cl)c1-c1cnc(C[C@@H](C)C(F)(F)F)cc1OC(F)F (single isomer, unassigned) [Example 18, 4-Chloro-5-(4-(difluoromethoxy)-6-((R*)-3,3,3-trifluoro-2-methylpropyl)pyridin-3-yl)-1-ethyl-N-(((1s,4S)-1-hydroxy-4-(methylsulfonyl)cyclohexyl)methyl)-1H-pyrazole-3-carboxamide] | 0.14 | 100 | 0.018 | 
7 | CCn1nc(C(=O)NC[C@H]2CC[C@H](S(C)(=O)=O)CC2)c(C)c1-c1cnc(C[C@@H](C)C(F)(F)F)cc1OC(F)F (single isomer, unassigned) [Example 19, 5-(4-(Difluoromethoxy)-6-((R*)-3,3,3-trifluoro-2-methylpropyl)pyridin-3-yl)-1-ethyl-4-methyl-N-(((1r,4R)-4-(methylsulfonyl)cyclohexyl)methyl)-1H-pyrazole-3-carboxamide] | 0.04 | 105 | 0.017 | 
8 | CCn1nc(C(=O)NC[C@]2(O)CC[C@@H](S(C)(=O)=O)CC2)c(C)c1-c1cnc(C[C@@H](C)C(F)(F)F)cc1OC(F)F (single isomer, unassigned) [Example 20, 5-(4-(Difluoromethoxy)-6-((R*)-3,3,3-trifluoro-2-methylpropyl)pyridin-3-yl)-1-ethyl-N-(((1s,4S)-1-hydroxy-4-(methylsulfonyl)cyclohexyl)methyl)-4-methyl-1H-pyrazole-3-carboxamide] | 0.099 | 123 | 0.034 | 
9 | CCn1nc(C(=O)NC[C@H]2CC[C@H](S(C)(=O)=O)CC2)c(Cl)c1-c1cnc(C[C@@H](C)C(F)(F)F)cc1OC (single isomer, unassigned) [Example 61, 4-Chloro-1-ethyl-5-(4-methoxy-6-((R*)-3,3,3-trifluoro-2-methylpropyl)pyridin-3-yl)-N-((1r,4r)-4-(methylsulfonyl)cyclohexyl)methyl)-1H-pyrazole-3-carboxamide] | 0.11 |  | 0.016 | 87
10 | CCn1nc(C(=O)NC[C@]2(O)CC[C@@H](S(C)(=O)=O)C[C@H]2O)c(Cl)c1-c1cnc(CC(C)(C)C(F)(F)F)cc1OC(F)F (stereo in doubt) [Example 3, 4-Chloro-5-(4-(difluoromethoxy)-6-(3,3,3-trifluoro-2,2-dimethylpropyl)pyridin-3-yl)-N-(((1R*,2R*,4R*)-1,2-dihydroxy-4-(methylsulfonyl)cyclohexyl)methyl)-1-ethyl-1H-pyrazole-3-carboxamide] | 0.063 | 105 | 0.0081 | 
11 | CCn1nc(C(=O)NC[C@@]2(O)CC[C@H](S(C)(=O)=O)C[C@@H]2O)c(Cl)c1-c1cnc(CC(C)(C)C(F)(F)F)cc1OC(F)F (stereo in doubt) [Example 4, 4-Chloro-5-(4-(difluoromethoxy)-6-(3,3,3-trifluoro-2,2-dimethylpropyl)pyridin-3-yl)-N-(((1S*,2S*,4S*)-1,2-dihydroxy-4-(methylsulfonyl)cyclohexyl)methyl)-1-ethyl-1H-pyrazole-3-carboxamide] | 0.055 | 100 | 0.0091 | 
